This note sets out measurements from patent EP4714953A1, “MELANOCORTIN 2-TYPE RECEPTOR ANTAGONIST” (Scohia Pharma, Inc., priority 2023, dated 2024).

The target of one experiment is T1, human MC2R (Homo sapiens, UniProt Q01718).
T1 construct: host or cells: GeneBLAzer MC2R-CRE-bla CHO-K1 cells
Briefly: Measurement of human MC2R inhibitory activity using intracellular cAMP concentration as an indicator. Conditions: test compound at 1 µM; GeneBLAzer MC2R-CRE-bla CHO-K1 cells; ACTH (Human 1-24) final concentration 3 pM; intracellular cAMP by HTRF; read-out: MC2R inhibition rate (% of inhibition). Format: cell-based. The essentials:
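MC2R-CRE-bla CHO-K1 cells at 1,500/well in HBSS with 10 mM HEPES pH 7.5, 0.01% BSA and 500 µM IBMX, preincubated 20 min with compound, then stimulated with 3 pM ACTH(1-24) for 30 min at room temperature. cAMP read by HTRF; % inhibition from the ACTH-stimulated and unstimulated windows.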
Background: TR-FRET usually uses a lanthanide donor and a delayed reading to cut background.

Experiment [1] relates to ACTH-induced corticosterone secretion. Briefly: Suppressive action of ACTH-induced corticosterone secretion in mice. It counts as in vivo. The note with it: 10 mg/kg, p.o.; male ICR mice; ACTH (1-24) 100 µg/kg subcutaneously 1 hr later; AUC up to 2 hr after ACTH administration. The method, then: Experimental Example 2: Suppressive action of ACTH-induced corticosterone secretion in mice
Nine-week-old male ICR mice (CHARLES RIVER LABORATORIES JAPAN, INC.) were used in the test.
The mice were assigned to each group based on body weight, with 5 mice per group. Test compounds were suspended in 0.5% (w/v) methylcellulose solution. ACTH (1-24) (A0948, LKT Laboratories, Inc.) was dissolved in saline. The test compound (10 mg/kg) or vehicle was orally administered to mice, and 1 hr later, ACTH solution (100 µg/kg) was administered subcutaneously. Blood was collected from the tail vein before ACTH administration and 0.5, 1, and 2 hr after administration, and corticosterone concentration in plasma was measured using an ELISA kit (EC3001-1, Assaypro). Using the plasma corticosterone concentration at each time point, the area under the blood concentration-time curve up to 2 hr after administration (AUC0-2h) was calculated.

Each structure is given as a SMILES string.

T1 sequence (Q01718 whole entry): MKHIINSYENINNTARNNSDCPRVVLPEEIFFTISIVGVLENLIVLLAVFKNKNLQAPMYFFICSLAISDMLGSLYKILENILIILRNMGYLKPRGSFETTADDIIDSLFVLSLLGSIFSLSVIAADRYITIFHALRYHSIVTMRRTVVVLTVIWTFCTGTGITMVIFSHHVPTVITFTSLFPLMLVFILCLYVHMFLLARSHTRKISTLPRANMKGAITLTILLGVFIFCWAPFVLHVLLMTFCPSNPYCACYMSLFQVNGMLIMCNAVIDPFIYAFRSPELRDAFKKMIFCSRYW
T1 sequence (Q8TCY5 whole entry partner): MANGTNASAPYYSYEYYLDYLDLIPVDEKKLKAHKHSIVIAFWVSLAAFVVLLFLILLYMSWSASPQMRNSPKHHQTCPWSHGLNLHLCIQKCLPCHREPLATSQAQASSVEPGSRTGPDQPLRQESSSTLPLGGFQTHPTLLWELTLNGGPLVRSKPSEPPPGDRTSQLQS

The inhibition is the drop in the measured response relative to a control, in per cent. Regarding `CCOc1ncccc1-c1ccc(N2C[C@H]3CN(c4ccc(Cl)cc4C(F)(F)F)C(=O)N3C[C@H]2CC)c(C(=O)N[C@H]2CNC(=O)C2)n1` [Example 38, 3-[(6R,8aS)-2-[4-chloro-2-(trifluoromethyl)phenyl]-6-ethyl-3-oxo-5,6,8,8a-tetrahydro-1H-imidazo[1,5-a]pyrazin-7-yl]-6-(2-ethoxypyridin-3-yl)-N-[(3R)-5-oxopyrrolidin-3-yl]pyridine-2-carboxamide], the inhibition at 1 µM on human MC2R was found to be 100%. For the same compound, the “plasma corticosterone AUC0-2h (% of vehicle, mean±S.D.)” value in experiment [1] is given as 14.2 ± 4.3 % of vehicle.
On the same counts, the results for `CCOc1ncccc1-c1ccc(N2C[C@H]3CN(c4ccc(Cl)cc4C(F)(F)F)C(=O)N3C[C@H]2CC)c(C(=O)NC[C@H](C)O)n1` [Example 34, 3-[(6R,8aS)-2-[4-chloro-2-(trifluoromethyl)phenyl]-6-ethyl-3-oxo-5,6,8,8a-tetrahydro-1H-imidazo[1,5-a]pyrazin-7-yl]-6-(2-ethoxypyridin-3-yl)-N-[(2S)-2-hydroxypropyl]pyridine-2-carboxamide] are 96% and 15.6 ± 4.9 % of vehicle.
Regarding `CCOc1ncccc1-c1ccc(N2C[C@H]3CN(c4ccc(Cl)cc4C(F)(F)F)C(=O)N3C[C@H]2CC)c(C(=O)N[C@@H]2CCNC2)n1` [Example 31, 3-[(6R,8aS)-2-[4-chloro-2-(trifluoromethyl)phenyl]-6-ethyl-3-oxo-5,6,8,8a-tetrahydro-1H-imidazo[1,5-a]pyrazin-7-yl]-6-(2-ethoxypyridin-3-yl)-N-[(3R)-pyrrolidin-3-yl]pyridine-2-carboxamide], the inhibition at 1 µM at human MC2R is 100%. The “plasma corticosterone AUC0-2h (% of vehicle, mean±S.D.)” value in experiment [1] was 61.1 ± 7.3 % of vehicle.
Turning to `CCOc1ncccc1-c1ccc(N2C[C@H]3CN(c4ccc(Cl)cc4C(F)(F)F)C(=O)N3C[C@H]2CC)c(C(=O)N[C@@H]2CC(=O)N(C)C2)n1` [Example 49, 3-[(6R,8aS)-2-[4-chloro-2-(trifluoromethyl)phenyl]-6-ethyl-3-oxo-5,6,8,8a-tetrahydro-1H-imidazo[1,5-a]pyrazin-7-yl]-6-(2-ethoxypyridin-3-yl)-N-[(3R)-1-methyl-5-oxopyrrolidin-3-yl]pyridine-2-carboxamide], at human MC2R, the inhibition at 1 µM came out at 100%. Besides, the “plasma corticosterone AUC0-2h (% of vehicle, mean±S.D.)” value in experiment [1] was 7.7 ± 2.5 % of vehicle.
Take `CCOc1ncccc1-c1ccc(N2C[C@H]3CN(c4ccc(Cl)cc4C(F)(F)F)C(=O)N3C[C@H]2CC)c(C(=O)N[C@@H]2CCNC2=O)n1` [Example 47, 3-[(6R,8aS)-2-[4-chloro-2-(trifluoromethyl)phenyl]-6-ethyl-3-oxo-5,6,8,8a-tetrahydro-1H-imidazo[1,5-a]pyrazin-7-yl]-6-(2-ethoxypyridin-3-yl)-N-[(3R)-2-oxopyrrolidin-3-yl]pyridine-2-carboxamide]: at human MC2R, the inhibition at 1 µM worked out at 100%. Besides, the “plasma corticosterone AUC0-2h (% of vehicle, mean±S.D.)” value in experiment [1] is recorded as 17.5 ± 4.4 % of vehicle.
In the same order, the values of `CCOc1ncccc1-c1ccc(N2C[C@H]3CN(c4ccc(Cl)cc4C(F)(F)F)C(=O)N3C[C@H]2CC)c(C(=O)NCC2(O)COC2)n1` [Example 30, 3-[(6R,8aS)-2-[4-chloro-2-(trifluoromethyl)phenyl]-6-ethyl-3-oxo-5,6,8,8a-tetrahydro-1H-imidazo[1,5-a]pyrazin-7-yl]-6-(2-ethoxypyridin-3-yl)-N-[(3-hydroxyoxetan-3-yl)methyl]pyridine-2-carboxamide] are 100% and 8.6 ± 2.4 % of vehicle.
On the same counts, the results for `CCOc1ncccc1-c1ccc(N2C[C@H]3CN(c4ccc(Cl)cc4C(F)(F)F)C(=O)N3C[C@H]2CC)c(C(=O)NCC(=O)NC)n1` [Example 37, 3-[(6R,8aS)-2-[4-chloro-2-(trifluoromethyl)phenyl]-6-ethyl-3-oxo-5,6,8,8a-tetrahydro-1H-imidazo[1,5-a]pyrazin-7-yl]-6-(2-ethoxypyridin-3-yl)-N-[2-(methylamino)-2-oxoethyl]pyridine-2-carboxamide] are 100% and 14.0 ± 1.8 % of vehicle.
As to `CCOc1ncccc1-c1ccc(N2CCN3C(=O)N(c4ccc(Cl)cc4C(F)(F)F)C[C@@H]3C2)c(C(=O)NCCCn2cccn2)n1` [Example 22, 3-[(8aS)-2-[4-chloro-2-(trifluoromethyl)phenyl]-3-oxo-5,6,8,8a-tetrahydro-1H-imidazo[1,5-a]pyrazin-7-yl]-6-(2-ethoxypyridin-3-yl)-N-(3-pyrazol-1-ylpropyl)pyridine-2-carboxamide], the inhibition at 1 µM on human MC2R was found to be 100%.
Take `CCOc1ncccc1-c1ccc(N2C[C@H]3CN(c4ccc(Cl)cc4C(F)(F)F)C(=O)N3C[C@H]2CC)c(C(=O)N[C@H](C)C(=O)NC)n1` [Example 40, 3-[(6R,8aS)-2-[4-chloro-2-(trifluoromethyl)phenyl]-6-ethyl-3-oxo-5,6,8,8a-tetrahydro-1H-imidazo[1,5-a]pyrazin-7-yl]-6-(2-ethoxypyridin-3-yl)-N-[(2R)-1-(methylamino)-1-oxopropan-2-yl]pyridine-2-carboxamide]: on human MC2R, the inhibition at 1 µM was determined as 100%.
The same measure, in the same setting: next, `COc1ccccc1-c1ccc(N2C[C@H]3CN(c4ccc(Cl)cc4C(F)(F)F)C(=O)N3C[C@H]2C)c(C(=O)N[C@@H]2CC(=O)N(C)C2)n1` [Example 64, 3-[(6R,8aS)-2-[4-chloro-2-(trifluoromethyl)phenyl]-6-methyl-3-oxo-5,6,8,8a-tetrahydro-1H-imidazo[1,5-a]pyrazin-7-yl]-6-(2-methoxyphenyl)-N-[(3R)-1-methyl-5-oxopyrrolidin-3-yl]pyridine-2-carboxamide]: 95%; `CCOc1ncccc1-c1ccc(N2CCN3C(=O)N(c4ccc(Cl)cc4C(F)(F)F)C[C@@H]3C2)c(C(=O)NCCC2CCOCC2)n1` [Example 13, 3-[(8aS)-2-[4-chloro-2-(trifluoromethyl)phenyl]-3-oxo-5,6,8,8a-tetrahydro-1H-imidazo[1,5-a]pyrazin-7-yl]-6-(2-ethoxypyridin-3-yl)-N-[2-(oxan-4-yl)ethyl]pyridine-2-carboxamide]: 99%; `CCOc1ccccc1-c1ccc(N2C[C@H]3CN(C4(C(F)(F)F)CC4)C(=O)N3C[C@H]2CC)c(C(=O)N[C@@H]2CC(=O)N(C)C2)n1` [Example 62, 3-[(6R,8aS)-6-ethyl-3-oxo-2-[1-(trifluoromethyl)cyclopropyl]-5,6,8,8a-tetrahydro-1H-imidazo[1,5-a]pyrazin-7-yl]-6-(2-ethoxyphenyl)-N-[(3R)-1-methyl-5-oxopyrrolidin-3-yl]pyridine-2-carboxamide]: 98%.
The same measure, in the same setting: next, `CCOc1ncccc1-c1ccc(N2C[C@H]3CN(c4ccc(Cl)cc4C(F)(F)F)C(=O)N3C[C@H]2CC)c(C(=O)NCC(C)(C)O)n1` [Example 35, 3-[(6R,8aS)-2-[4-chloro-2-(trifluoromethyl)phenyl]-6-ethyl-3-oxo-5,6,8,8a-tetrahydro-1H-imidazo[1,5-a]pyrazin-7-yl]-6-(2-ethoxypyridin-3-yl)-N-(2-hydroxy-2-methylpropyl)pyridine-2-carboxamide]: 100%.
`CCOc1ncccc1-c1ccc(N2CCN3C(=O)N(c4ccc(Cl)cc4C(F)(F)F)C[C@@H]3C2)c(C=O)n1` [Example 5, 3-[(8aS)-2-[4-chloro-2-(trifluoromethyl)phenyl]-3-oxo-5,6,8,8a-tetrahydro-1H-imidazo[1,5-a]pyrazin-7-yl]-6-(2-ethoxypyridin-3-yl)pyridine-2-carbaldehyde]: the inhibition at 1 µM on human MC2R is 100%.
The same measure, in the same setting: in the case of `CCOc1ncccc1-c1ccc(N2CCN3C(=O)N(c4ccc(Cl)cc4C(F)(F)F)C[C@@H]3C2)c(C(=O)NCC2CCOCC2)n1` [Example 11, 3-[(8aS)-2-[4-chloro-2-(trifluoromethyl)phenyl]-3-oxo-5,6,8,8a-tetrahydro-1H-imidazo[1,5-a]pyrazin-7-yl]-6-(2-ethoxypyridin-3-yl)-N-(oxan-4-ylmethyl)pyridine-2-carboxamide] it was 97%; in that of `CCOc1ncccc1-c1ccc(N2C[C@H]3CN(c4ccc(Cl)cc4C(F)(F)F)C(=O)N3C[C@H]2CC)c(C(=O)NC[C@@H](C)O)n1` [Example 33, 3-[(6R,8aS)-2-[4-chloro-2-(trifluoromethyl)phenyl]-6-ethyl-3-oxo-5,6,8,8a-tetrahydro-1H-imidazo[1,5-a]pyrazin-7-yl]-6-(2-ethoxypyridin-3-yl)-N-[(2R)-2-hydroxypropyl]pyridine-2-carboxamide], 100%; in that of `CCOc1ncccc1-c1ccc(N2C[C@H]3CN(c4ccc(Cl)cc4C(F)(F)F)C(=O)N3C[C@H]2CC)c(C(=O)NC[C@@H]2CCN2)n1` [Example 46, 3-[(6R,8aS)-2-[4-chloro-2-(trifluoromethyl)phenyl]-6-ethyl-3-oxo-5,6,8,8a-tetrahydro-1H-imidazo[1,5-a]pyrazin-7-yl]-N-[[(2S)-azetidin-2-yl]methyl]-6-(2-ethoxypyridin-3-yl)pyridine-2-carboxamide], 100%.
